What was measured:
[1] = test system: Puccinia recondita f. sp. tritici (the causal agent of wheat leaf rust); assay: Test B: preventive spray on wheat seedlings, disease rating (100 = 100% control; * 50 ppm, ** 10 ppm, *** 250 ppm); type: in vivo; details: 100 = 100% disease control
Summary of the method: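 Preventive test: Puccinia recondita f. sp. tritici spores were inoculated one day after run-off spraying of wheat seedlings with test suspension (acetone/water 50/50, 250 ppm PEG400). After 24 h in saturated air and 6 days in a growth chamber, both at 20° C, control was scored 0–100 versus untreated plants.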

[2] = test system: Phakopsora pachyrhizi (the causal agent of Asian soybean rust); assay: Test A: preventive spray on soybean seedlings, visual disease rating (100 = 100% control; * 50 ppm, ** 10 ppm, *** 250 ppm); type: in vivo; details: 100 = 100% disease control
From the text: General protocol for preparing test suspensions for Tests A-E: the test compounds were first dissolved in acetone in an amount equal to 3% of the final volume and then suspended at the desired concentration (in ppm) in acetone and purified water (50/50 mix by volume) containing 250 ppm of the surfactant […] (polyhydric alcohol esters). The resulting test suspensions were then used in Tests A-E.
The test solution was sprayed to the point of run-off on soybean seedlings. The following day the seedlings were inoculated with a spore suspension of Phakopsora pachyrhizi (the causal agent of Asian soybean rust) and incubated in a saturated atmosphere at 22° C. for 24 h, and then moved to a growth chamber at 22° C. for 8 days, after which time visual disease ratings were made.
Results for Tests A-E are given in Table A. In the Table, a rating of 100 indicates 100% disease control and a rating of 0 indicates no disease control (relative to the controls). An asterisk “*” or a double asterisk “**” or a triple asterisk “***” next to the rating value indicates a 50 ppm, 10 ppm and 250 ppm test suspension was used, respectively. A dash (-) indicates the compound was not tested.

[3] = 10 ppm test suspension, wheat seedlings
[4] = 10 ppm test suspension, soybean seedlings
[5] = 50 ppm test suspension, 0 = no control
[6] = 10 ppm test suspension, 0 = no control

`O=C(NCC(F)(F)F)c1csc(Cc2ccc(OCC(O)(O)C(F)(F)F)cc2)n1` [Compound 68] was tested, and the “Test B disease control rating” value [1, 3] was 95% and the “Test A disease control rating” value [2, 4] was 100%.

For `CCOC(=O)c1cnn(Cc2ccc(OC)c(O/C=C(\OCC)C(F)(F)F)c2)c1` [compound 408], the “Test B disease control rating” value [1, 5] was 0% and the “Test A disease control rating” value [2, 5] was 44%.

With `CCOC(=O)c1csc(Cc2ccc(OCC3(C(F)(F)F)OCCO3)cc2)n1` [compound 137] the “Test B disease control rating” value [1, 3] was 0% and the “Test A disease control rating” value [2, 4] was 79%.

`CCOC(=O)c1cnn(Cc2ccc(O/C=C(\OS(=O)(=O)C(F)(F)F)C(F)(F)F)cc2)c1` [compound 422] was tested, and the “Test B disease control rating” value [1, 5] was 84% and the “Test A disease control rating” value [2, 5] was 100%.

With `CCO/C(=C\Oc1ccc(C(C)=O)cc1)C(F)(F)F` [compound 79] the “Test B disease control rating” value ([1]; 50 ppm test suspension, wheat seedlings) was 0% and the “Test A disease control rating” value ([2]; 50 ppm test suspension, soybean seedlings) was 0%.

With `O=C(NCc1ccc(OCC2(C(F)(F)F)OCCO2)cc1)c1cccc(C(F)(F)F)c1` [compound 179] the “Test B disease control rating” value [1, 3] was 0% and the “Test A disease control rating” value [2, 4] was 0%.

In the case of `CCOC(=O)c1cnn(CCCc2ccc(OCC(O)(O)C(F)(F)F)cc2)c1` [compound 286], the “Test B disease control rating” value [1, 6] is reported as 55% and the “Test A disease control rating” value [2, 6] is reported as 87%.

With `CN(C)S(=O)(=O)c1ccc(OCC2(C(F)(F)F)OCCO2)cc1` [compound 25] the “Test B disease control rating” value [1, 3] was 0% and the “Test A disease control rating” value [2, 4] was 0%.

In the case of `CCOC(=O)c1cnn(Cc2ccc(OCC3(C(F)(F)F)NCCO3)cc2)c1` (stereo not drawn) [compound 21], the “Test B disease control rating” value [1, 3] is reported as 23% and the “Test A disease control rating” value [2, 4] is reported as 84%.

In the case of `CCOC(=O)c1cnn(COc2ccc(OCC(O)(O)C(F)(F)F)cc2)c1` [Compound 366, ethyl 1-[[4-(3,3,3-trifluoro-2,2-dihydroxypropoxy)phenoxy]methyl]-1H-pyrazole-4-carboxylate], the pest or weed control at 10 ppm ([1]; Puccinia recondita, 10 ppm test suspension, 0 = no control) is reported as 55% and the pest or weed control at 10 ppm ([2]; Phakopsora pachyrhizi, 10 ppm test suspension, 0 = no control) is reported as 79%.

`O=C(OCc1ccc(F)c(F)c1)c1cnn(Cc2ccc(OCC3(C(F)(F)F)OCCO3)cc2)c1` [compound 18] was tested, and the “Test B disease control rating” value [1, 3] was 0% and the “Test A disease control rating” value [2, 4] was 100%.

For `CCOC(=COc1ccc(Cn2nccc2C(=O)OC)cc1)C(F)(F)F` [compound 250], the “Test B disease control rating” value [1, 3] was 0% and the “Test A disease control rating” value [2, 4] was 0%.

With `CCO/C(=C\Oc1ccc(CN2CCC(C)(C)C2=O)cc1)C(F)(F)F` [compound 225] the “Test B disease control rating” value [1, 3] was 0% and the “Test A disease control rating” value [2, 4] was 0%.

For `CCO/C(=C\Oc1ccc(C(=O)OC)cc1)C(F)(F)F` [compound 230], the “Test B disease control rating” value [1, 3] was 0% and the “Test A disease control rating” value [2, 4] was 0%.

`O=C(OCC(F)(F)C(F)(F)F)c1cnn(Cc2ccc(OCC(O)(O)C(F)(F)F)cc2)c1` [compound 46] was tested, and the “Test B disease control rating” value [1, 3] was 85% and the “Test A disease control rating” value [2, 4] was 64%.

`CCO/C(=C\Oc1ccc(Cn2cc(C(=O)O)cn2)cc1)C(F)(F)F` [compound 116] was tested, and the “Test B disease control rating” value [1, 3] was 0% and the “Test A disease control rating” value [2, 4] was 100%.

`CC#CCOC(=O)c1ccn(Cc2ccc(O/C=C(\OCC)C(F)(F)F)cc2)n1` [compound 293] was tested, and the “Test B disease control rating” value [1, 6] was 0% and the “Test A disease control rating” value [2, 6] was 100%.

In the case of `CCNC(=O)OCc1ccc(O/C=C(\OCC)C(F)(F)F)cc1` [compound 196], the “Test B disease control rating” value [1, 3] is reported as 74% and the “Test A disease control rating” value [2, 4] is reported as 0%.

With `CCOC(=O)c1cnn(Cc2ccc(O/C=C(\OCCO)C(F)(F)F)cc2)c1` [compound 145] the “Test B disease control rating” value [1, 3] was 0% and the “Test A disease control rating” value [2, 4] was 82%.

For `Cc1ccc(OCC(O)(O)C(F)(F)F)cc1` [compound 396], the “Test B disease control rating” value [1, 5] was 19% and the “Test A disease control rating” value [2, 5] was 31%.

With `CCO/C(=C\Oc1ccc(-c2noc(C(F)(F)F)n2)cc1)C(F)(F)F` [compound 143] the “Test B disease control rating” value [1, 3] was 0% and the “Test A disease control rating” value [2, 4] was 0%.

`CCO/C(=C\Oc1ccc(Cn2ccc(C(=O)OCCOC)n2)cc1)C(F)(F)F` [compound 360] was tested, and the “Test B disease control rating” value [1, 6] was 0% and the “Test A disease control rating” value [2, 6] was 100%.

With `CCO/C(=C\Oc1cccc(Cn2cc(C(=O)OCC3CCC3)cn2)c1)C(F)(F)F` [compound 342] the “Test B disease control rating” value [1, 6] was 0% and the “Test A disease control rating” value [2, 6] was 100%.

For `CCOC(=O)c1cnn(Cc2ccc(O/C=C(\OCCOC)C(F)(F)F)cc2)c1` [compound 54], the “Test B disease control rating” value [1, 3] was 0% and the “Test A disease control rating” value [2, 4] was 0%.

In the case of `CCCOC(=O)c1ccc(O/C=C(\OCC)C(F)(F)F)cc1` [compound 94], the “Test B disease control rating” value [1, 3] is reported as 0% and the “Test A disease control rating” value [2, 4] is reported as 0%.

With `O=C(OCC1CCC1)c1cnn(Cc2ccc(OCC3(C(F)(F)F)OCCO3)cc2)c1` [compound 249] the “Test B disease control rating” value [1, 3] was 0% and the “Test A disease control rating” value [2, 4] was 100%.

For `CCOC(=COc1ccc(Cn2ccc(C)n2)cc1)C(F)(F)F` [compound 158], the “Test B disease control rating” value [1, 3] was 0% and the “Test A disease control rating” value [2, 4] was 0%.

In the case of `CCO/C(=C\Oc1cccc(Cn2cc(C(=O)OCCC(F)=C(F)F)cn2)c1)C(F)(F)F` [compound 349], the “Test B disease control rating” value [1, 6] is reported as 0% and the “Test A disease control rating” value [2, 6] is reported as 100%.

`C#CCNC(=O)c1ccc(O/C=C(\OCC)C(F)(F)F)cc1` [compound 102] was tested, and the “Test B disease control rating” value [1, 3] was 0% and the “Test A disease control rating” value [2, 4] was 0%.

For `CCO/C(=C\Oc1ccc(COC(N)=O)cc1)C(F)(F)F` [compound 193], the “Test B disease control rating” value [1, 3] was 86% and the “Test A disease control rating” value [2, 4] was 0%.

`CCOC(=O)c1ccn(Cc2ccc(OC)c(O/C=C(\OCC)C(F)(F)F)c2)n1` [compound 407] was tested, and the “Test B disease control rating” value [1, 5] was 0% and the “Test A disease control rating” value [2, 5] was 0%.

`O=C(OCc1ccc(F)c(F)c1)c1cnn(Cc2ccc(OCC(O)(O)C(F)(F)F)cc2)c1` [compound 50] was tested, and the “Test B disease control rating” value [1, 3] was 91% and the “Test A disease control rating” value [2, 4] was 54%.

For `CCOC(=O)c1cnn(Cc2ccc(OCC3(C(F)(F)F)OC(=O)CS3)cc2)c1` (stereo not drawn) [compound 20], the “Test B disease control rating” value [1, 3] was 86% and the “Test A disease control rating” value [2, 4] was 98%.

In the case of `Cc1ccc(OCC2(C(F)(F)F)OCCO2)c(F)c1` [compound 442], the pest or weed control at 50 ppm ([1]; Puccinia recondita, 50 ppm test suspension, 0 = no control) is reported as 0% and the pest or weed control at 50 ppm ([2]; Phakopsora pachyrhizi, 50 ppm test suspension, 0 = no control) is reported as 0%.

With `CCO/C(=C\Oc1ccc(Cn2ncnc2C#N)cc1)C(F)(F)F` [compound 81] the “Test B disease control rating” value [1, 3] was 0% and the “Test A disease control rating” value [2, 4] was 0%.

`COC(=O)c1cnn(Cc2ccc(OCC3(C(F)(F)F)OCCO3)cc2)c1` [compound 13] was tested, and the “Test B disease control rating” value [1, 3] was 0% and the “Test A disease control rating” value [2, 4] was 99%.

With `FC(F)(F)C1(COc2ccc(Oc3ccccc3)cc2)OCCO1` [compound 191] the “Test B disease control rating” value [1, 3] was 0% and the “Test A disease control rating” value [2, 4] was 0%.

In the case of `O=C(NCC(F)(F)F)c1cnc(Cc2ccc(OCC(O)(O)C(F)(F)F)cc2)s1` [compound 277], the “Test B disease control rating” value [1, 6] is reported as 45% and the “Test A disease control rating” value [2, 6] is reported as 50%.

With `CCO/C(=C\Oc1ccc(C=O)cc1)C(F)(F)F` [compound 148] the “Test B disease control rating” value [1, 3] was 0% and the “Test A disease control rating” value [2, 4] was 0%.

With `CCOC(=O)c1cn(Cc2ccc(O/C=C(\OCC)C(F)(F)F)cc2)cn1` [compound 153] the “Test B disease control rating” value [1, 3] was 0% and the “Test A disease control rating” value [2, 4] was 100%.

`C[Si](C)(C)CCOc1nccc(Cc2ccc(OCC3(C(F)(F)F)OCCO3)cc2)n1` [compound 314] was tested, and the “Test B disease control rating” value [1, 5] was 0% and the “Test A disease control rating” value [2, 5] was 0%.

`COCCNC(=O)c1csc(Cc2ccc(OCC(O)(O)C(F)(F)F)cc2)n1` [Compound 223] was tested, and the “Test B disease control rating” value [1, 3] was 0% and the “Test A disease control rating” value [2, 4] was 75%.

In the case of `O=C(OCC1OCCO1)c1cnn(Cc2ccc(OCC3(C(F)(F)F)OCCO3)cc2)c1` [compound 204], the “Test B disease control rating” value [1, 3] is reported as 0% and the “Test A disease control rating” value [2, 4] is reported as 100%.

With `CCO/C(=C\Oc1ccc(CN2CCCC2=O)cc1)C(F)(F)F` [compound 224] the “Test B disease control rating” value [1, 3] was 0% and the “Test A disease control rating” value [2, 4] was 0%.

`O=C(OCC1CCCCC1)c1cnn(Cc2ccc(OCC3(C(F)(F)F)OCCO3)cc2)c1` [compound 272] was tested, and the “Test B disease control rating” value [1, 6] was 0% and the “Test A disease control rating” value [2, 6] was 100%.

In the case of `O=C(OC1CCC1)c1cnn(Cc2ccc(OCC3(C(F)(F)F)OCCO3)cc2)c1` [compound 318], the “Test B disease control rating” value [1, 6] is reported as 0% and the “Test A disease control rating” value [2, 6] is reported as 100%.

With `CCOC(=O)C1CCN(Cc2ccc(O/C=C(\OCC)C(F)(F)F)cc2)CC1` [compound 268] the “Test B disease control rating” value [1, 6] was 0% and the “Test A disease control rating” value [2, 6] was 99%.

With `O=C(OCC(F)(F)F)c1cnn(Cc2ccc(OCC(O)(O)C(F)(F)F)cc2)c1` [compound 45] the “Test B disease control rating” value [1, 3] was 85% and the “Test A disease control rating” value [2, 4] was 87%.

`CC(=O)COC(=O)c1cnn(Cc2ccc(OCC3(C(F)(F)F)OCCO3)cc2)c1` [compound 169] was tested, and the “Test B disease control rating” value [1, 3] was 0% and the “Test A disease control rating” value [2, 4] was 100%.

`CCOC(=O)c1cnn(Cc2cc(O/C=C(\OCC)C(F)(F)F)ccc2F)c1` [compound 302] was tested, and the “Test B disease control rating” value [1, 5] was 0% and the “Test A disease control rating” value [2, 5] was 99%.

In the case of `CCO/C(=C\Oc1cccc(Cn2cc(C(=O)O)cn2)c1)C(F)(F)F` [compound 323], the “Test B disease control rating” value [1, 5] is reported as 0% and the “Test A disease control rating” value [2, 5] is reported as 100%.

— patent US20240122180A1, “FUNGICIDAL HALOMETHYL KETONES AND HYDRATES AND THEIR MIXTURES” (FMC Corporation, priority 2020, published 2024)
